± gives the expanded uncertainty stated by the source.
Experiments:
[1] = 303.15 K, 101.33 kPa, Liquid; for viscosity: Capillary tube (Ostwald / Ubbelohde) method; for speed of sound: Linear variable-path acoustic interferometer; for mass density: Pycnometric method
[2] = xn = mol fraction of the nth substance listed; conditions: 303.15 K, 101 kPa, Liquid, x1 = 0.5; for viscosity: Capillary tube (Ostwald / Ubbelohde) method; for speed of sound: Frequency=2 MHz; for mass density: Pycnometric method

| SMILES | viscosity [1] [mPa·s] | speed of sound [1] [m/s] | mass density [1] [kg/m3] | viscosity [2] [mPa·s] | speed of sound ([2]; variable-path interferometer) [m/s] | mass density [2] [kg/m3] | speed of sound ([2]; Linear variable-path acoustic interferometer) [m/s] |
| --- | --- | --- | --- | --- | --- | --- | --- |
| CCCCO [butan-1-ol] | 2.054 ± 0.21 | 1228.4 ± 1.9 | 804 ± 4 |  |  |  |  |
| CCOC(=O)c1ccccc1 [ethyl benzoate] | 1.749 ± 0.17 | 1345.4 ± 2 | 1042 ± 4 |  |  |  |  |
| CCOC(=O)c1ccccc1 [ethyl benzoate] + CCCO |  |  |  | 1.679 ± 0.17 | 1261.4 ± 1.9 | 918.5 ± 4 |  |
| COC(=O)c1ccccc1 [methyl benzoate] | 1.67 ± 0.17 | 1399.4 ± 2 | 1077 ± 4 |  |  |  |  |
| COC(=O)c1ccccc1 [methyl benzoate] + CCCO |  |  |  | 1.634 ± 0.16 |  | 944.5 ± 4 | 1296.6 ± 1.9 |
| CCCCCO [pentan-1-ol] | 3.012 ± 0.3 | 1252.4 ± 1.9 | 810 ± 4 |  |  |  |  |
| CCCO [propan-1-ol] | 1.61 ± 0.16 | 1189.2 ± 1.9 | 798 ± 4 |  |  |  |  |
